Measurements from patent publication US20100317673A1, “N-HETEROCYCLIC-IMIDAZO[1,2-a]PYRIDINE-2-CARBOXAMIDE DERIVATIVES, THEIR PREPARATION AND THEIR THERAPEUTIC APPLICATION” (SANOFI-AVENTIS, priority 2008, published 2010).

What follows are compounds tested against T1, mouse Nurr1 receptor (Mus musculus, UniProt Q06219) (assay: In vitro activity on N2A cells (NBRE-luciferase reporter)). Conditions: N2A (Neuro-2A) cells endogenously expressing mouse Nurr1, stably transfected with 8NBRE-luciferase; 24 hours incubation.
T1 construct: a cell line (N2A) endogenously expressing the mouse Nurr1 receptor; host or cells: Neuro-2A (N2A) mouse neuroblastoma cells stably transfected with 8NBRE-luciferase
T1 sequence (Q06219 whole entry): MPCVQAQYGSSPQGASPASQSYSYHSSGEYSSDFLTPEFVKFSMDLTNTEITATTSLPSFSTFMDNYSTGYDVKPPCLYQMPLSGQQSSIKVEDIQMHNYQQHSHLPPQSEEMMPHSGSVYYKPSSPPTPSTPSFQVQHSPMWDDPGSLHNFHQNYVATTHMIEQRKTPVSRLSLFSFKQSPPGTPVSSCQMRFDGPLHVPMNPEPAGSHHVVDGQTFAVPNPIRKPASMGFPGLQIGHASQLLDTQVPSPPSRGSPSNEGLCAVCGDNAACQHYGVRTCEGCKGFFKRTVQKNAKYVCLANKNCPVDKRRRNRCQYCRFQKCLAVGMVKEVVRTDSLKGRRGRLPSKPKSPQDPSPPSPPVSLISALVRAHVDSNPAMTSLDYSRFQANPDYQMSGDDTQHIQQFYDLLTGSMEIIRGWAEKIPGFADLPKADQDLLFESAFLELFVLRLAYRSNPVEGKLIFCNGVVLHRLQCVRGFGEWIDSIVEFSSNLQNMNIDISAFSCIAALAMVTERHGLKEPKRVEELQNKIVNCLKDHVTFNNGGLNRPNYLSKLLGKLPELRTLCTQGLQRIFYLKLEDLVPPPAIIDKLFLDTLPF
Type: cell-based
Procedure: The activity of the compounds according to the invention was evaluated on a cell line (N2A) endogenously expressing the mouse Nurr1 receptor and stably transfected with the NOT binding response element (NBRE) coupled to the luciferase reporter gene. The EC50 values are between 0.01 and 1000 nM. The assays were carried out according to the procedure described below.
The Neuro-2A cell line comes from a standard commercial source (ATCC). The Neuro-2A clone was obtained, from a spontaneous tumour originating from an A albino mouse strain, by R. J Klebe et al. This Neuro-2A line is subsequently stably transfected with 8NBRE-luciferase. The N2A-8NBRE cells are cultured until confluence in 75 cm^2 culture flasks containing DMEM supplemented with 10% of foetal calf serum, 4.5 g/l of glucose and 0.4 mg/ml of geneticin. After a week of culture, the cells are recovered with 0.25% trypsin for 30 seconds and then resuspended in DMEM without phenol red, containing 4.5 g/l of glucose and 10% of Hyclone delipidized serum, and deposited into transparent-bottom 96-well white plates. The cells are deposited at a rate of 60 000 per well in 75 μl for 24 hours before the addition of the products. The products are applied in 25 μl and incubated for a further 24 hours. On the day of the measurement, an equivalent volume (100 μl) of Steadylite is added to each well and then left for a period of 30 minutes in order to obtain complete cell lysis and maximum signal production. The plates are subsequently measured in a luminescence counter for microplates after having been sealed with an adhesive film. The products are prepared in the form of a stock solution at 10^−2M and then diluted in 100% of DMSO. Each product concentration is prediluted in culture medium before incubation with the cells, thus containing 0.625% final concentration of DMSO.
Compound `CN(C)c1ccc2nc(C(=O)Nc3ccccn3)cn2c1` [Compound 8, 6-(Dimethylamino)-N-(pyridin-2-yl)imidazo[1,2-a]pyridine-2-carboxamide] has an EC50 of 0.5 nM.
With `CN(C)c1ccc2nc(C(=O)Nc3ccon3)cn2c1` [Compound 39, 6-(Dimethylamino)-N-(isoxazol-3-yl)imidazo[1,2-a]pyridine-2-carboxamide] the EC50 was 10.5 nM.
`O=C(Nc1ccccn1)c1cn2cc(Cl)ccc2n1` [Compound 4, 6-Chloro-N-(pyridin-2-yl)imidazo[1,2-a]pyridine-2-carboxamide] gave an EC50 of 2.2 nM.
`O=C(Nc1ccccn1)c1cn2cc(-c3cccc(CO)c3)ccc2n1` [Compound 7, 6-[3-(Hydroxymethyl)phenyl]-N-(pyridin-2-yl)imidazo[1,2-a]pyridine-2-carboxamide] gave an EC50 of 0.04 nM.
